According to patent US20040102423A1, “Spironolactone and angiotensin II antagonist combination therapy for treatment of congestive heart failure” (G.D. Searle & Co., priority 1995, published 2004):

Assays:
[1] = target: angiotensin II AT1 receptor; assay: Assay A: Angiotensin II binding activity, rat uterine membrane preparation, 125I-AII displacement
rabbit aortic rings = assay: Assay B: In vitro vascular smooth muscle response for AII (antagonist activity, pA2); format: cell-based; conditions: Oryctolagus cuniculus, two values in a cell = two determinations
Summary of the method: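 Endothelium-denuded thoracic aortic rings from male New Zealand white rabbits, in oxygenated Krebs at 37° C. under ~1 g tension, gave isometric AII contraction curves (3×10^−10 to 1×10^−5 M).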

pressor response to AII = assay: Assay C: In vivo intragastric pressor assay response for AII antagonists; set-up: species or system Sprague-Dawley rats; conditions: in vivo pressor response, 3 mg/kg intragastrically; for inhibition in vivo at 3 mg/kg: Rattus norvegicus, po
myocardial fibrosis = conditions: animal models; cited from earlier work

**Q.** What does the source list for `CCCCc1cn(-c2ccccc2CC)c(=O)n1Cc1ccc(-c2ccccc2-c2nnn[nH]2)nc1` [Compound 239]?
**A.** IC50 [1]: 6.8 nM; Kb (rabbit aortic rings): 13.2 nM; inhibition in vivo at 3 mg/kg (pressor response to AII): 20%; Assay C Duration (pressor response to AII): >180 min

**Q.** With `CCCCc1cn([C@H]2[C@H](C)CCC[C@@H]2C)c(=O)n1Cc1ccc(-c2ccccc2-c2nnn[nH]2)nc1` [Compound 247] as the molecule, how does the IC50 [1] read?
**A.** 9.4 nM

**Q.** And the Kb (rabbit aortic rings)?
**A.** 5.5 nM

**Q.** And the inhibition in vivo at 3 mg/kg (pressor response to AII)?
**A.** 20%

**Q.** And the “Assay C Duration” value (pressor response to AII)?
**A.** 180 min

**Q.** With `CCCCc1cn(C2CCCCC2(C)C)c(=O)n1Cc1ccc(-c2ccccc2-c2nnn[nH]2)nc1` (centres unmarked) [Compound 248] as the molecule, how does the IC50 [1] read?
**A.** 20 nM

**Q.** What about the Kb (rabbit aortic rings) of the same molecule?
**A.** 20.9 nM

**Q.** What about the inhibition in vivo at 3 mg/kg (pressor response to AII) of the same molecule?
**A.** 10%

**Q.** What does the source list for `CCCCc1nc(CCCC)n(Cc2ccc(-c3cnccc3-c3nnn[nH]3)cc2)n1` [Compound 255]?
**A.** IC50 [1]: 12 nM; Kb (rabbit aortic rings): 24.5 nM; inhibition in vivo at 3 mg/kg (pressor response to AII): 20%; Assay C Duration (pressor response to AII): >180 min

**Q.** With `CCCCc1nc(-c2ccccc2C)n(Cc2ccc(-c3ccccc3-c3nnn[nH]3)nc2)n1` [Compound 273] as the molecule, how does the IC50 [1] read?
**A.** 9.8 nM

**Q.** What about the Kb (rabbit aortic rings) of the same molecule?
**A.** 2.95 nM

**Q.** And the inhibition in vivo at 3 mg/kg (pressor response to AII)?
**A.** 25%

**Q.** And the “Assay C Duration” value (pressor response to AII)?
**A.** >180 min

**Q.** What does the source list for `CCCCc1nc(-c2ccccc2C(C)C)nn1Cc1ccc(-c2ccccc2-c2nnn[nH]2)nc1` [Compound 274]?
**A.** IC50 [1]: 13 nM; Kb (rabbit aortic rings): 0.871 nM; inhibition in vivo at 3 mg/kg (pressor response to AII): 35%; Assay C Duration (pressor response to AII): >180 min

**Q.** Which IC50 [1] does the source give for `CCCCc1nc(-c2ccccc2C(C)C)n(Cc2ccc(-c3ccccc3-c3nnn[nH]3)nc2)n1` [Compound 275] here?
**A.** 6.3 nM

**Q.** And the Kb (rabbit aortic rings)?
**A.** 0.851 nM

**Q.** And the inhibition in vivo at 3 mg/kg (pressor response to AII)?
**A.** 40%

**Q.** And the “Assay C Duration” value (pressor response to AII)?
**A.** >180 min

**Q.** With `CCCCc1nc(-c2ccccc2OC)nn1Cc1ccc(-c2ccccc2-c2nnn[nH]2)nc1` [Compound 276] as the molecule, how does the IC50 [1] read?
**A.** 33 nM

**Q.** What about the Kb (rabbit aortic rings) of the same molecule?
**A.** 1.95 nM

**Q.** What about the inhibition in vivo at 3 mg/kg (pressor response to AII) of the same molecule?
**A.** < 20%

**Q.** With `CCCCc1nc(-c2ccccc2Cl)nn1Cc1ccc(-c2ccccc2-c2nnn[nH]2)nc1` [Compound 278] as the molecule, how does the IC50 [1] read?
**A.** 30 nM

**Q.** What about the Kb (rabbit aortic rings) of the same molecule?
**A.** 3.24 nM

**Q.** And the inhibition in vivo at 3 mg/kg (pressor response to AII)?
**A.** 50%

**Q.** And the “Assay C Duration” value (pressor response to AII)?
**A.** >180 min

**Q.** For `CC(=O)S[C@@H]1CC2=CC(=O)CC[C@]2(C)[C@H]2CC[C@@]3(C)[C@@H](CC[C@@]34CCC(=O)O4)[C@H]12` [spironolactone, 17-hydroxy-7α-mercapto-3-oxo-17α-pregn-4-ene-21-carboxylic acid γ-lactone acetate], which “prevention of myocardial fibrosis” value (myocardial fibrosis) is on record?
**A.** prevents myocardial fibrosis
